Laboratory results: patent US4215215A, “9-Phenyl-nonate traene compounds” (Hoffmann-La Roche Inc., priority 1979, dated 1980)

Key:
papillomas = experiment: Papilloma test (tumors induced with dimethylbenzanthracene and croton oil); type: in vivo; details: intraperitoneal, within 2 weeks
Description: The compounds of formula I are effective for utilizing tumors such as papillomas. In the papilloma test, tumors induced with dimethylbenzanthracene and croton oil regress. The diameters of the papillomae decline within 2 weeks on intraperitoneal administration.

in vivo = details: mouse, ip, mice; for LD50 at 24 h: After 1 day; for LD50 at 24 h / LD50 at 240 h / LD50 at 480 h: intraperitoneal, in rape-oil; for LD50 at 240 h: After 10 days; for LD50 at 480 h: After 20 days; for LD50: intraperitoneal administration in rape-oil, no time stated, read-out: acute toxicity [LD50]

| Structure (SMILES) | decline of the diameters of the papillomae (papillomas; 50 mg/kg/week) | decline of the diameters of the papillomae (papillomas; 100 mg/kg/week) | LD50 at 24 h (in vivo) | LD50 at 240 h (in vivo) | LD50 at 480 h (in vivo) | LD50 (in vivo) | decline of the diameters of the papillomae (papillomas; 25 mg/kg/week) |
| --- | --- | --- | --- | --- | --- | --- | --- |
| COc1cc(C)c(C=CC(C)=CC=CC(C)=CC(=O)O)c(C)c1C [Substance A, 9-(4-methoxy-2,3,6-trimethyl-phenyl)-3,7-dimethyl-nona-2,4,6,8-tetraen-1-oic acid] | 38% | 69% | > 4000 mg/kg | 700 mg/kg | 700 mg/kg | 700 mg/kg | – |
| CCOC(=O)C=C(C)C=CC=C(C)C=Cc1c(C)cc(OC)c(C)c1C [Substance B, 9-(4-methoxy-2,3,6-trimethyl-phenyl)-3,7-dimethyl-nona-2,4,6,8-tetraen-1-oic acid ethyl ester] | 63% | – | > 4000 mg/kg | 1900 mg/kg | 1000 mg/kg | 1000 mg/kg | 45% |
